According to US8173643B2, “N-substituted thiomorpholine derivatives as the inhibitors of dipeptidyl peptidase IV and the pharmaceutical uses thereof” (Beijing Molecule Science and Technology Co., Ltd., priority 2007, dated 2012):
Structures can show the parent of a compound that is named as a salt.

Key:
DPP-IV = target: T1, DPP-IV (Homo sapiens, UniProt P27487); assay: Determination of DPP-IV inhibitory activity and IC50 (enzyme from Caco-2 cell lysate, absorbance at 405 nm); type: biochemical; conditions: for inhibition at 0.1 µM: Concentration 100 nM; for inhibition at 0.3 µM: Concentration 300 nM
T1 construct: endogenous in cells; host or cells: Caco-2 (human colon carcinoma), differentiated; NP-40 lysate, 35000 g supernatant
Protocol: Cultivation of human colon carcinoma cell-line cells (Caco-2): Caco-2 cells were cultivated in a culture medium of DMEM (high glucose, containing 10% fetal bovine serum, 1% NAA), and the cell lines were passaged in a proportion of 1:1 or 1:2; after nearly reaching confluence, the cells were further cultivated for 2-3 weeks, while changing the medium once every 2-3 days.
Preparation of DPP-IV: the cells were washed with a pre-cooled PBS for 2-3 times, and 0.5-1 ml ice-cold 10 mM Tris-HCl (containing 0.15 M NaCl, 0.04 t.i.u aprotinin, 0.5% nonionic detergent P40, pH 8) was added to each culture bottle to lysate the cells, followed by collecting them in a centrifuge tube. After centrifugation at 4° C., 35000 g for […], the obtained supernatant was collected, and subjected to a protein content detection, and then stored in a low temperature refrigerator.
The test groups included enzyme control group, substrate control group, enzyme reaction control group, and compound group, and the test was carried out in a 96-pore plate, using 150 μL reaction system. In the 96-pore plate, a diluted test compound was added in the compound group, 30 μL/pore; 20 μL DPP-IV solution was added in the enzyme control group, as well as in the compound group; an analytic buffer (25 mM Tris-HCl pH 7.4, containing 140 mM NaCl, 10 mM KCl, 1% bovine serum albumin) was added in 130 μL to the enzyme control group, in 125 μL to the substrate control group, in 105 μL to the enzyme reaction control group, and in 75 μL to the compound group; and then 25 μL substrate (1 mM) was added, followed by reacting at room temperature for 10 min. No substrate was added in the enzyme control group. After reacting for 10 min, 25% glacial acetic acid was added in 19 μL/pore to terminate the reaction. The absorbance was determined by using an enzyme calibrating apparatus at a wavelength of 405 nm.

[1] = pig, in vivo, cited from earlier work
[2] = system: streptozotocin-induced DM male mouse; conditions: 2 times/d, after 7 weeks; cited from earlier work
obese mouse = conditions: 10 mg/kg, 2 times/d, long-term treatment; cited from earlier work

T1 sequence (P27487 whole entry): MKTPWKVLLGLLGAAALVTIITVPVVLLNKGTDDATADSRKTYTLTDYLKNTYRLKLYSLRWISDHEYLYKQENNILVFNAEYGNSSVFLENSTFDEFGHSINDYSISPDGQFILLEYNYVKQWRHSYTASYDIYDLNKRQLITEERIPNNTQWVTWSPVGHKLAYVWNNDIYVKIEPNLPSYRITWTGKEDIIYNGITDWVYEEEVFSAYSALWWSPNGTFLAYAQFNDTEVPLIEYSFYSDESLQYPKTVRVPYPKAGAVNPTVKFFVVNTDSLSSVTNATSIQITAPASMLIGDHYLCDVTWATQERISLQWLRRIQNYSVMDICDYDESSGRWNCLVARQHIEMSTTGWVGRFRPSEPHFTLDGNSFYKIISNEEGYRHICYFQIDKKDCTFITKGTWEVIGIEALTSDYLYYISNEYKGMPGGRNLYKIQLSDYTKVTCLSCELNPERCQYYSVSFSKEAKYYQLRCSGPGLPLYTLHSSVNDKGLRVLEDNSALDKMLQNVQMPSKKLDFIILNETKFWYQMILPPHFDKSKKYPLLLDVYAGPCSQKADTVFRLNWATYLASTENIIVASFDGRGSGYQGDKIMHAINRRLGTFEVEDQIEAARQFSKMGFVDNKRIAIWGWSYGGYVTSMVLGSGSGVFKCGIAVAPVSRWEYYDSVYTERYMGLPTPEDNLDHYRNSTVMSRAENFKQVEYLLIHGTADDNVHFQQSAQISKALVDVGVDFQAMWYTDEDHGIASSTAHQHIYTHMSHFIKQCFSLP

CC(C)[C@@H](N)C(=O)N1CCSC[C@H]1C#N (stereo in doubt) [Compound 1, (R)-3-cyano-4-(2-amino-3-methyl-butyryl)thiomorpholine hydrochloride]
inhibition at 0.01 µM (DPP-IV; Concentration 10 nM, read-out: Inhibitory rate(%)): 7.65 ± 0.68% | inhibition at 0.03 µM (DPP-IV; Concentration 30 nM, read-out: Inhibitory rate(%)): 13.2 ± 1.92% | inhibition at 0.1 µM (DPP-IV; read-out: Inhibitory rate(%)): 40.3 ± 3.09% | inhibition at 0.3 µM (DPP-IV; read-out: Inhibitory rate(%)): 73 ± 1.74% | inhibition at 1 µM (DPP-IV; Concentration 1000 nM, read-out: Inhibitory rate(%)): 101 ± 1.36% | IC50 (DPP-IV; DPP-IV from Caco-2 cells): 189 ± 26.4 nM

GIP: gastric inhibitory peptide, an incretin secreted by K cells, substrate of DPP-IV
immunocompetence of intact GIP shown by radioimmunoassay ([1]; iv): 14.5% | immunocompetence of GIP [1]: 49%

CC[C@H](C)[C@H](N)C(=O)N1CCSC1 [P32/98]
fraction of islet β cells increased, as compared with the control group [2]: 12% | number of islets increased, as compared with the control group [2]: 35% | number of overall β cells increased, as compared with the control group [2]: 120% | plasma insulin level [2]: approaching to normal

CC(C)(C)[C@H](N)C(=O)N1CCC[C@H]1C#N [FE 999011]
postponement of the occurrence of hyperglycemia (obese mouse): 21 days

CC(C)C[C@@H](N)C(=O)N1CCSC[C@H]1C#N [Compound 2, (R)-3-cyano-4-(2-amino-4-methyl-pentanoyl)thiomorpholine hydrochloride]
inhibition at 0.1 µM (DPP-IV; read-out: Inhibitory rate(%)): 24.1 ± 2.41% | inhibition at 0.3 µM (DPP-IV; read-out: Inhibitory rate(%)): 47.2 ± 0.64%
